From ChEMBL document CHEMBL5576127, “New CDDO Arylboronate Ester Derivatives with High Selectivity and Low Toxicity” (J Med Chem, 2024)
Calls of active or inactive are those of the source. No cut-off for these calls is given here.

Key:
BGC-823 [1] = assay: Induction of apoptosis in human BGC-823 cells assessed as viable cells at 1 uM incubated for 48 hrs by Annexin V-FITC/PI staining based flow cytometric analysis ( Rvb = 90.09 %); format: functional; conditions: read-out: Activity
[2] = AUC (0 to infinity) in rat at 10 mg/kg, iv measured after 24 hrs by LC-MS/MS analysis; format: ADME, organism-based; conditions: in vivo
Cell membrane [3] = assay: Induction of mitochondrial membrane potential loss in human BGC-823 cells assessed as increase in number of cells with J-monomers by measuring green fluorescence at 0.25 uM incubated for 24 hrs by JC-1 staining based flow cytometric analysis (reference value: 0.33%); format: cell membranes
BGC-823 [4] = assay: Induction of apoptosis in human BGC-823 cells assessed as early apoptotic cells at 0.25 uM incubated for 48 hrs by Annexin V-FITC/PI staining based flow cytometric analysis ( Rvb = 1.68 %); format: functional
BGC-823 [5] = assay: Induction of apoptosis in human BGC-823 cells assessed as viable cells at 0.25 uM incubated for 48 hrs by Annexin V-FITC/PI staining based flow cytometric analysis ( Rvb = 90.09 %); format: functional; conditions: read-out: Activity
Cell membrane [6] = assay: Induction of mitochondrial membrane potential loss in human BGC-823 cells assessed as decrease in number of cells with J-aggregates by measuring red fluorescence at 0.5 uM incubated for 24 hrs by JC-1 staining based flow cytometric analysis (reference value: 99.7 %); format: cell membranes; set-up: scale not given: the % may be the effect or the level left
BGC-823 [7] = assay: Induction of apoptosis in human BGC-823 cells assessed as early apoptotic cells at 1 uM incubated for 48 hrs by Annexin V-FITC/PI staining based flow cytometric analysis ( Rvb = 1.68 %); format: functional
[8] = Clearance in rat at 10 mg/kg, ip measured after 24 hrs by LC-MS/MS analysis; format: ADME, organism-based; conditions: in vivo
[9] = Cmax in rat at 10 mg/kg, iv measured after 24 hrs by LC-MS/MS analysis; format: ADME, organism-based; conditions: in vivo
[10] = Half-life in rat at 10 mg/kg, iv measured after 24 hrs by LC-MS/MS analysis; format: ADME, organism-based; conditions: in vivo
[11] = GSH reactivity in human BGC-823 cells assessed as GSSG/GSH ratio at 0.4 uM incubated for 24 hrs by microplate reader analysis (reference value: 0.34); format: ADME, cell-based; conditions: bgc-823, 24 h
BGC-823 [12] = assay: Induction of apoptosis in human BGC-823 cells assessed as late apoptotic cells at 0.25 uM incubated for 48 hrs by Annexin V-FITC/PI staining based flow cytometric analysis ( Rvb = 5.61 %); format: functional
BGC-823 [13] = assay: Induction of apoptosis in human BGC-823 cells assessed as late apoptotic cells at 0.5 uM incubated for 48 hrs by Annexin V-FITC/PI staining based flow cytometric analysis ( Rvb = 5.61 %); format: functional
[14] = Clearance in rat at 10 mg/kg, iv measured after 24 hrs by LC-MS/MS analysis; format: ADME, organism-based; conditions: in vivo
Cell membrane [15] = assay: Induction of mitochondrial membrane potential loss in human BGC-823 cells assessed as increase in number of cells with J-monomers by measuring green fluorescence at 1 uM incubated for 24 hrs by JC-1 staining based flow cytometric analysis (reference value: 0.33%); format: cell membranes
BGC-823 [16] = assay: Induction of apoptosis in human BGC-823 cells assessed as late apoptotic cells at 1 uM incubated for 48 hrs by Annexin V-FITC/PI staining based flow cytometric analysis ( Rvb = 5.61 %); format: functional
[17] = Cmax in rat at 10 mg/kg, ip measured after 24 hrs by LC-MS/MS analysis; format: ADME, organism-based; conditions: in vivo
BGC-823 [18] = assay: Induction of apoptosis in human BGC-823 cells assessed as necrotic cells at 0.25 uM incubated for 48 hrs by Annexin V-FITC/PI staining based flow cytometric analysis ( Rvb = 1.79 %); format: functional
BGC-823 [19] = assay: Induction of apoptosis in human BGC-823 cells assessed as necrotic cells at 1 uM incubated for 48 hrs by Annexin V-FITC/PI staining based flow cytometric analysis ( Rvb = 1.79 %); format: functional
[20] = Binding affinity to DTT in PBS assessed as UV peak appearance at 288 nm at 360 uM by UV-Vis spectra analysis
Cell membrane [21] = assay: Induction of mitochondrial membrane potential loss in human BGC-823 cells assessed as decrease in number of cells with J-aggregates by measuring red fluorescence at 1 uM incubated for 24 hrs by JC-1 staining based flow cytometric analysis (reference value: 99.7 %); format: cell membranes; set-up: scale not given: the % may be the effect or the level left
[22] = AUC (0 to infinity) in rat at 10 mg/kg, ip measured after 24 hrs by LC-MS/MS analysis; format: ADME, organism-based; conditions: in vivo
[23] = Apparent volume of distribution in rat at 10 mg/kg, ip measured after 24 hrs by LC-MS/MS analysis; format: ADME, organism-based; conditions: in vivo
[24] = Half-life in rat at 10 mg/kg, ip measured after 24 hrs by LC-MS/MS analysis; format: ADME, organism-based; conditions: in vivo
BGC-823 [25] = assay: Induction of ROS generation in human BGC-823 cells assessed as cells with green fluorescence at 0.5 uM incubated for 24 hrs by DCFH-DA staining based analysis relative to control; format: functional
BGC-823 [26] = assay: Induction of ROS generation in human BGC-823 cells assessed as cells with green fluorescence at 1 uM incubated for 24 hrs by DCFH-DA staining based analysis relative to control; format: functional
BGC-823 [27] = assay: Induction of ROS generation in human BGC-823 cells assessed as cells with green fluorescence at 0.25 uM incubated for 24 hrs in presence of NAC by DCFH-DA staining based analysis relative to control; format: functional
BGC-823 [28] = assay: Cell cycle arrest in human BGC-823 cells assessed as accumulation of cells at G2/M phase incubated for 24 hrs by PI staining based flow cytometric analysis; format: functional
BGC-823 [29] = assay: Induction of apoptosis in human BGC-823 cells assessed as necrotic cells at 0.5 uM incubated for 48 hrs by Annexin V-FITC/PI staining based flow cytometric analysis ( Rvb = 1.79 %); format: functional
Cell membrane [30] = assay: Induction of mitochondrial membrane potential loss in human BGC-823 cells assessed as increase in number of cells with J-monomers by measuring green fluorescence at 1 uM incubated for 24 hrs in presence of NAC by JC-1 staining based flow cytometric analysis (reference value: 0.33%); format: cell membranes
BGC-823 [31] = assay: Induction of apoptosis in human BGC-823 cells assessed as viable cells at 0.5 uM incubated for 48 hrs by Annexin V-FITC/PI staining based flow cytometric analysis ( Rvb = 90.09 %); format: functional; conditions: read-out: Activity
[32] = AUC (0 to t) in rat at 10 mg/kg, iv measured after 24 hrs by LC-MS/MS analysis; format: ADME, organism-based; conditions: in vivo
[33] = AUC (0 to t) in rat at 10 mg/kg, ip measured after 24 hrs by LC-MS/MS analysis; format: ADME, organism-based; conditions: in vivo
[34] = Apparent volume of distribution in rat at 10 mg/kg, iv measured after 24 hrs by LC-MS/MS analysis; format: ADME, organism-based; conditions: in vivo, read-out: Vz
Cell membrane [35] = assay: Induction of mitochondrial membrane potential loss in human BGC-823 cells assessed as increase in number of cells with J-monomers by measuring green fluorescence at 0.5 uM incubated for 24 hrs by JC-1 staining based flow cytometric analysis (reference value: 0.33%); format: cell membranes
Cell membrane [36] = assay: Induction of mitochondrial membrane potential loss in human BGC-823 cells assessed as decrease in number of cells with J-aggregates by measuring red fluorescence at 0.25 uM incubated for 24 hrs by JC-1 staining based flow cytometric analysis (reference value: 99.7 %); format: cell membranes; set-up: scale not given: the % may be the effect or the level left
Cell membrane [37] = assay: Induction of mitochondrial membrane potential loss in human BGC-823 cells assessed as decrease in number of cells with J-aggregates by measuring red fluorescence at 1 uM incubated for 24 hrs in presence of NAC by JC-1 staining based flow cytometric analysis (reference value: 99.7 %); format: cell membranes; set-up: scale not given: the % may be the effect or the level left
BGC-823 [38] = assay: Induction of ROS generation in human BGC-823 cells assessed as cells with green fluorescence at 0.25 uM incubated for 24 hrs by DCFH-DA staining based analysis relative to control; format: functional
BGC-823 [39] = assay: Induction of apoptosis in human BGC-823 cells assessed as early apoptotic cells at 0.5 uM incubated for 48 hrs by Annexin V-FITC/PI staining based flow cytometric analysis ( Rvb = 1.68 %); format: functional

AUC(0-inf) [2]: 20200 ng·h/mL | Activity (Cell membrane [3]): 2.06% | Activity (Cell membrane [6]): 84.2% | CL [8]: 14.4 mL/min/kg | Cmax [9]: 19000 ng/mL | half-life [10]: 5.4 h | Ratio [11]: 1.08 | clearance [14]: 8.4 mL/min/kg | Activity (Cell membrane [15]): 77.4% | Cmax [17]: 881 ng/mL | Activity [20]: Active | Activity (Cell membrane [21]): 24.5% | AUC [22]: 1163 ng·h/mL | Vz [23]: 20.63 L/kg | half-life [24]: 16.5 h | Activity (Cell membrane [30]): 3.14% | AUC(0-t) at 24 h [32]: 20000 ng·h/mL | AUCt [33]: 7310 ng·h/mL | Vd [34]: 3.99 L/kg | Activity (Cell membrane [35]): 15.4% | Activity (Cell membrane [36]): 97.8% | Activity (Cell membrane [37]): 96.7%
Compound: CC1(C)CC[C@]2(C(=O)OCCCCOC(=O)c3ccc(O)cc3)CC[C@]3(C)[C@H](C(=O)C=C4[C@@]5(C)C=C(C#N)C(=O)C(C)(C)[C@@H]5CC[C@]43C)[C@@H]2C1
viability at 1 µM (BGC-823 [1]): 50.1% | Activity (BGC-823 [4]): 3.01% | viability at 0.25 µM (BGC-823 [5]): 90.6% | Activity (BGC-823 [7]): 14% | Activity (BGC-823 [12]): 5.9% | Activity (BGC-823 [13]): 16.1% | Activity (BGC-823 [16]): 30.4% | Activity (BGC-823 [18]): 0.49% | Activity (BGC-823 [19]): 5.52% | Activity (BGC-823 [25]): 61.6% | Activity (BGC-823 [26]): 95.3% | Activity (BGC-823 [27]): 67.2% | Activity (BGC-823 [28]): Dose-Dependent Effect | Activity (BGC-823 [29]): 5.79% | viability at 0.5 µM (BGC-823 [31]): 74.7% | Activity (BGC-823 [38]): 23.2% | Activity (BGC-823 [39]): 3.44%
